Measurements taken from article PMC3196554 (Chemical research in toxicology, 2010).
Where two headings read alike, the source gives them in different places.

Experiments:
[1] = for Amount in urine collected for 10 h after consumption of cooked beef: Mean ± SD of 3 independent measurements; for % Dose in urine collected for 10 h after consumption of cooked beef: metabolites as % of dose of parent MeIQx or PhIP
[2] = Acid hydrolysis of conjugates; type: physicochemical; conditions: 50% (v/v) glacial acetic acid or 1 N HCl, 80 °C for 8 h

Compound	Amount in urine collected for 10 h after consumption of cooked beef ([1]; Subject S-001)	% Dose in urine collected for 10 h after consumption of cooked beef ([1]; Subject S-001)	Amount in urine collected for 10 h after consumption of cooked beef ([1]; Subject S-003)	% Dose in urine collected for 10 h after consumption of cooked beef ([1]; Subject S-003)	Amount in urine collected for 10 h after consumption of cooked beef ([1]; Subject S-005)	% Dose in urine collected for 10 h after consumption of cooked beef ([1]; Subject S-005)	Amount in urine collected for 10 h after consumption of cooked beef ([1]; Subject S-008)	% Dose in urine collected for 10 h after consumption of cooked beef ([1]; Subject S-008)	Amount in urine collected for 10 h after consumption of cooked beef ([1]; Subject S-009)	% Dose in urine collected for 10 h after consumption of cooked beef ([1]; Subject S-009)	Amount in urine collected for 10 h after consumption of cooked beef ([1]; Subject S-012)	% Dose in urine collected for 10 h after consumption of cooked beef ([1]; Subject S-012)	Amount in urine collected for 10 h after consumption of cooked beef ([1]; Subject S-013)	% Dose in urine collected for 10 h after consumption of cooked beef ([1]; Subject S-013)	Amount in urine collected for 10 h after consumption of cooked beef ([1]; Subject S-014)	% Dose in urine collected for 10 h after consumption of cooked beef ([1]; Subject S-014)	Amount in urine collected for 10 h after consumption of cooked beef ([1]; Subject S-015)	% Dose in urine collected for 10 h after consumption of cooked beef ([1]; Subject S-015)	Amount in urine collected for 10 h after consumption of cooked beef ([1]; Subject S-020)	% Dose in urine collected for 10 h after consumption of cooked beef ([1]; Subject S-020)	other results
Cn1c(N)nc2ncc(-c3ccc(O)cc3)cc21 [4'-HO-PhIP, 2-amino-1-methyl-6-(4′-hydroxy)-phenylimidazo[4,5-b]pyridine]	20.1 ± 9.9 ng	0.4 % Dose	35.0 ± 3.4 ng	0.7 % Dose	41.7 ± 0.9 ng	0.8 % Dose	27.0 ± 3.8 ng	0.5 % Dose	25.2 ± 2.8 ng	0.5 % Dose	50.1 ± 2.8 ng	1.0 % Dose	37.2 ± 5.2 ng	0.7 % Dose	18.4 ± 1.2 ng	0.4 % Dose	18.3 ± 2.9 ng	0.3 % Dose	38.3 ± 2.5 ng	0.7 % Dose	–
Cn1c(N(O)[C@@H]2O[C@H](C(=O)O)[C@@H](O)[C@H](O)[C@H]2O)nc2ncc(-c3ccccc3)cc21 [HONH-PhIP-N^2-GI, N^2-(ß-1-glucosidurony1)-N-hydroxy-2-amino-1-methy1-6-phenylimidazo[4,5-b]pyridine]	2201 ± 37.3 ng	24.3 % Dose	2692 ± 121 ng	29.7 % Dose	2112 ± 88.5 ng	23.3 % Dose	2198 ± 88.2 ng	24.3 % Dose	2009 ± 31.0 ng	22.2 % Dose	2621 ± 86.0 ng	29.0 % Dose	1848 ± 25.6 ng	20.4 % Dose	1274 ± 29.0 ng	14.1 % Dose	2067 ± 103 ng	22.8 % Dose	2223 ± 15.6 ng	24.6 % Dose	–
Cn1c(=NO)n([C@@H]2O[C@H](C(=O)O)[C@@H](O)[C@H](O)[C@H]2O)c2ncc(-c3ccccc3)cc21 [HONH-PhIP-N3-GI, N3-(ß-1-glucosidurony1)-N-hydroxy-2-amino-1-methy1-6-phenylimidazo[4,5-b]pyridine]	238 ± 7.4 ng	2.6 % Dose	189 ± 10.6 ng	2.1 % Dose	176 ± 4.2 ng	1.9 % Dose	222 ± 10.0 ng	2.5 % Dose	191 ± 5.5 ng	2.1 % Dose	319 ± 6.0 ng	3.5 % Dose	179 ± 7.0 ng	2.0 % Dose	89.5 ± 3.3 ng	1.0 % Dose	216 ± 12.0 ng	2.4 % Dose	253 ± 4.9 ng	2.8 % Dose	–
Cc1cnc2ccc3c(nc(NS(=O)(=O)O)n3C)c2n1 [MeIQx-N^2-SO3H, N^2-(3,8-dimethylimidazo[4,5-f]quinoxalin-2-yl)-sulfamic acid]	–	–	–	–	–	–	–	–	–	–	–	–	–	–	–	–	–	–	–	–	Behaviour under acid hydrolysis conditions [2]: quantitatively hydrolyzed to the parent amines
Cc1cnc2ccc3c(nc(N[C@@H]4O[C@H](C(=O)O)[C@@H](O)[C@H](O)[C@H]4O)n3C)c2n1 [MeIQx-N^2-Gl, N^2-(ß-1-glucosiduronyl)-2-amino-3,8-dimethylimidazo[4,5-f]quinoxaline]	–	–	–	–	–	–	–	–	–	–	–	–	–	–	–	–	–	–	–	–	Behaviour under acid hydrolysis conditions [2]: quantitatively hydrolyzed to the parent amines
Cn1c(N[C@@H]2O[C@H](C(=O)O)[C@@H](O)[C@H](O)[C@H]2O)nc2ncc(-c3ccccc3)cc21 [PhIP-N^2-Gl, N^2-(ß-1-glucosidurony1)-2-amino-1-methy1-6-phenylimidazo[4,5-b]pyridine]	–	–	–	–	–	–	–	–	–	–	–	–	–	–	–	–	–	–	–	–	Behaviour under acid hydrolysis conditions [2]: quantitatively hydrolyzed to the parent amines; Amount present in urine samples ([1]; urine after meat consumption, LOQ ~50 pg/mL): ~ 50 pg/mL
